In assay [1] the target is T1, PI3Kα (wild-type), P110/P85α (Homo sapiens, UniProt P42336).
T1 construct: made in house; host or cells: SF9 insect cells
The assay is described as follows: PI3 Kinase TR-FRET assay, PI3Kα (wild-type). It is filed as biochemical. Put shortly: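 TR-FRET read-out of PIP3 formation via biotin-PIP3 displacement (665/615 nm ratio) gave IC50 curves. Enzyme: 5 ng wild-type P110/P85α from Sf9 cells, 60 min RT with compound and PIP2 (MgCl2 40 mM, DTT 5 mM), then 30 min RT kinase reaction at 10 μM ATP and 10 μM PIP2.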

The target of the next assay is T2, mTOR kinase (Homo sapiens, UniProt P42345).
T2 construct: purchased Millipore, USA
The assay is described as follows: mTOR kinase TR-FRET assay. Conditions: read-out: mTO R. It is filed as biochemical. In short, it runs like this:
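TR-FRET read-out (340 nm excitation, 615/665 nm emission) of Thr389 phosphorylation of a ULight-labeled p70 S6K peptide (50 nM) by mTOR, 20 μM ATP, 60 min room temperature after 60 min compound preincubation. Buffer HEPES pH 7.5 with MnCl2, EGTA; IC50 by sigmoidal dose-response.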

Assay [2] deals with pS6RP(S235/236), PC3 cells. The assay is described as follows: In-cell Western assay, pS6RP(S235/236) in PC3 cells. It is filed as cell-based, human. On the procedure: Cells from human prostate cancer cell line PC3 (American Type Culture Collection (ATCC), Manassas, Va. 20108 USA) were seeded at an optimal density of 22,000 cell/well in 96-well plates containing Ham's F12K medium (90 μL) and incubated overnight. The compound dilutions were carried out in 100% DMSO followed by a dilution in the medium. Test compounds were added in serial dilutions to the wells and incubated for 2 h. The cells were washed and fixed with 4% paraformaldehyde. After incubation at room temperature for 1 h in the dark, blocking was done for 2 h at room temperature. Primary antibodies for phosphorylated (p) AKT(5473) (phosphorylated at serine 473), pAKT(T308) (phosphorylated at threonine 308) and for pS6RP(S235/236) (phosphorylated at serine 235/236) (commercially available from Cell Signaling Technology®, whose protocol was followed for the in-cell western assay, were diluted to the required concentration and added to the corresponding wells followed by overnight incubation at 4° C. Eu-labeled rabbit (PE) (Perkin-Elmer USA catalog #AD0106) secondary antibody was added and incubated for 2 h at room temperature. Delfia® enhancement solution (cat #1244-105, Perkin Elmer USA) was subsequently added to the plate before taking the reading at 615 nm with excitation wavelength of 340 nm, after which 0.5 μg/mL of Hoechst® 33258 dye (Catalog #86140-5, Sigma) was added to the plate and fluorescence emission was read at 460 nm with 355 nm excitation, to evaluate the correction factor. IC50 values were calculated using a sigmoidal dose-response curve fit in GraphPad Prism® v5 software.

A further assay has as its system PC3 cells. The assay is described as follows: XTT assay for cell viability, PC3 cells. The class given is cell-based, human. To be noted: Homo sapiens, PC-3, cell viability. Put shortly:
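PC3 cells seeded at 1000 cells/well, grown 24 h, then exposed to serial dilutions of compound for 96 h. Viability read by XTT dye at 37° C, absorbance 465 nm. EC50 from sigmoidal dose-response fit.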

Where [3] appears, read: Homo sapiens, PC-3, In-cell Western.

In patent US9115092B2, “Substituted quinazoline and pyrido-pyrimidine derivatives” (Asana Biosciences, LLC, priority 2010, dated 2015) one finds IC50 data, which are given here for 15 compounds.

pIC50: −log10 of the molar value.

T1 sequence (P42336 whole entry): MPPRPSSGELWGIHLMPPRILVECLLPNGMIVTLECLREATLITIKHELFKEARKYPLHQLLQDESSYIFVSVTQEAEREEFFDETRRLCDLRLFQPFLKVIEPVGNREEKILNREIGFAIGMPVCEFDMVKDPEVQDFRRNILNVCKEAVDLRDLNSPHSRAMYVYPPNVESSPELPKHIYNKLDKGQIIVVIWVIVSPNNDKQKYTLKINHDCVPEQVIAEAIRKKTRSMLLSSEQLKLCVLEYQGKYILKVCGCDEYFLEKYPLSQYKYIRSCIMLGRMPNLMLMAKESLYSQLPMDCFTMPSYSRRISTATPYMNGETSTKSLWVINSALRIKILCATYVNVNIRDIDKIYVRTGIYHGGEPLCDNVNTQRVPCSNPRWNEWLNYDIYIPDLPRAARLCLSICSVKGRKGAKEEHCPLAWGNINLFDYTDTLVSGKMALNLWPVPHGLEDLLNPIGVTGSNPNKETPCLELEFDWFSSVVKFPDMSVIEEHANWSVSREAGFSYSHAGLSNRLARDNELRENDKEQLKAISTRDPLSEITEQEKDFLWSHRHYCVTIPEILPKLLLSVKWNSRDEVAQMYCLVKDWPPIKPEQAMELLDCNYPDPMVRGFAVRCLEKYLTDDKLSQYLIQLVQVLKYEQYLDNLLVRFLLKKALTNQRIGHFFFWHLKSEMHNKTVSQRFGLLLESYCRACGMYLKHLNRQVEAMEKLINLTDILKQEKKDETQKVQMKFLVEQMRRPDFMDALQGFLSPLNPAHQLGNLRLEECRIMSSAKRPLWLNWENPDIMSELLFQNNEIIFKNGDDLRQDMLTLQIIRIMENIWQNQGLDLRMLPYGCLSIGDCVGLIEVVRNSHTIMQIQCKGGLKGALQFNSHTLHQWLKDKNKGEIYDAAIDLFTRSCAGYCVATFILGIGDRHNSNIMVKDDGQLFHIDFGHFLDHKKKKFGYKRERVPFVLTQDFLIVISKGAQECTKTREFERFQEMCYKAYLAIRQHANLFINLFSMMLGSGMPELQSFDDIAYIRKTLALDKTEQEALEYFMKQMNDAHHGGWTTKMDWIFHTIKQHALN
T1 sequence (P27986 whole entry partner): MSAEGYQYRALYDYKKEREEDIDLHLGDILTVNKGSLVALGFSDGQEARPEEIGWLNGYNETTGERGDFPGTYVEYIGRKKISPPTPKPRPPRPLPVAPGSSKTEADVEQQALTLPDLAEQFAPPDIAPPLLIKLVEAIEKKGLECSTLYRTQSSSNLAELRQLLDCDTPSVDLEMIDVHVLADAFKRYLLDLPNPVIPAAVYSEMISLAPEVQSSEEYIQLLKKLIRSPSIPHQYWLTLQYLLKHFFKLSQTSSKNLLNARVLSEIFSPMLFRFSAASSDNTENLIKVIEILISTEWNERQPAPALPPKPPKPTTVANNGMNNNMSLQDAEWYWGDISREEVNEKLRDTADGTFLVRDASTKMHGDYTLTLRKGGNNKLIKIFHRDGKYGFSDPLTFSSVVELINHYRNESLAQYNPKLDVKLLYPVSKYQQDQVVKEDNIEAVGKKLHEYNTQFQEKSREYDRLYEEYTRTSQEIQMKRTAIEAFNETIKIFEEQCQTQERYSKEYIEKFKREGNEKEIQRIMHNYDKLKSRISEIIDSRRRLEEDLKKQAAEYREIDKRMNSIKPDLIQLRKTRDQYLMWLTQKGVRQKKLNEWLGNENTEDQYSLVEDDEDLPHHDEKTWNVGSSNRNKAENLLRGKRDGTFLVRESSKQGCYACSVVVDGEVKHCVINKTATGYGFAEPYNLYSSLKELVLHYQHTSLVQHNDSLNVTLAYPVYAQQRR

`CN(C)C1CCN(C(=O)c2ccc(NC(=O)Nc3ccc(-c4nc(N5CCOCC5)c5cc(F)c(-c6cccnc6)cc5n4)cc3)cc2)C1` (stereo in doubt) [Example 198, (S)-1-(4-(3-(dimethylamino)pyrrolidine-1-carbonyl)phenyl)-3-(4-(6-fluoro-4-morpholino-7-(pyridin-3-yl)quinazolin-2-yl)phenyl)urea]: the pIC50 was over 7.30 in assay [1], over 7.30 on mTOR kinase, 5.00 to 6.70 in assay [2] (setting [3]) and 5.00 to 6.70 in the assay with PC3 cells.
In the case of `CN(C)C1CCN(C(=O)c2ccc(NC(=O)Nc3ccc(-c4nc(N5CCOCC5)c5ncc(-c6cncnc6)cc5n4)cc3)cc2)C1` (stereo in doubt) [Example 199, (S)-1-(4-(3-(dimethylamino)pyrrolidine-1-carbonyl)phenyl)-3-(4-(4-morpholino-7-(pyrimidin-5-yl)pyrido[3,2-d]pyrimidin-2-yl)phenyl)urea], the pIC50 is over 7.30 in assay [1], over 7.30 on mTOR kinase, 5.00 to 6.70 in assay [2] (setting [3]) and 5.00 to 6.70 in the assay on PC3 cells.
With `CN(C)C1CCN(C(=O)c2ccc(NC(=O)Nc3ccc(-c4nc(N5CCOCC5)c5ccc(-c6cncnc6)cc5n4)cc3F)cc2)C1` (stereo in doubt) [Example 207, (S)-1-(4-(3-(dimethylamino)pyrrolidine-1-carbonyl)phenyl)-3-(2-fluoro-4-(4-morpholino-7-(pyrimidin-5-yl)quinazolin-2-yl)phenyl)urea], the pIC50 in assay [1] was over 7.30; on mTOR kinase it was over 7.30; in assay [2] (setting [3]), 5.00 to 6.70; in the assay on PC3 cells, over 7.00.
For the compound `NC1CCN(C(=O)c2ccc(NC(=O)Nc3ccc(-c4nc(N5CCOCC5)c5ccc(-c6cncnc6)cc5n4)cc3F)cc2)C1` (stereo in doubt) [Example 208, (S)-1-(4-(3-aminopyrrolidine-1-carbonyl)phenyl)-3-(2-fluoro-4-(4-morpholino-7-(pyrimidin-5-yl)quinazolin-2-yl)phenyl)urea], the pIC50 in assay [1] is over 7.30; on mTOR kinase it was over 7.30; in assay [2] (setting [3]), 5.00 to 6.70; in the assay on PC3 cells, 5.00 to 6.70.
In the case of `CN(C)C1CCN(C(=O)c2ccc(NC(=O)Nc3ccc(-c4nc(N5CCOCC5)c5ncc(-c6cccnc6F)cc5n4)cc3F)cc2)C1` (stereo in doubt) [Example 213, (S)-1-(4-(3-(dimethylamino)pyrrolidine-1-carbonyl)phenyl)-3-(2-fluoro-4-(7-(2-fluoropyridin-3-yl)-4-morpholino-pyrido[3,2-d]pyrimidin-2-yl)phenyl)urea], the pIC50 in assay [1] is over 7.30; on mTOR kinase, over 7.30; in assay [2] (setting [3]) it was 5.00 to 6.70; with PC3 cells, 5.00 to 6.70.
Take `Cc1noc(C)c1-c1ccc2c(N3CCOCC3)nc(-c3ccc(NC(=O)Nc4ccc(C(=O)N5CCC(N(C)C)C5)cc4)cc3)nc2c1` (stereo in doubt) [Example 220, (S)-1-(4-(3-(dimethylamino)pyrrolidine-1-carbonyl)phenyl)-3-(4-(7-(3,5-dimethylisoxazol-4-yl)-4-morpholino-quinazolin-2-yl)phenyl)urea]: the pIC50 in assay [1] was 6.70 to 7.30; at mTOR kinase it was over 7.30; in assay [2] (setting [3]), 5.00 to 6.70; with PC3 cells, 5.00 to 6.70.
For `CN(C)C1CCN(C(=O)c2ccc(NC(=O)Nc3ccc(-c4nc(N5CCOCC5)c5ccc(C(C)(C)O)cc5n4)cc3)cc2)C1` (stereo in doubt) [Example 289, (S)-1-(4-(3-(dimethylamino)pyrrolidine-1-carbonyl)phenyl)-3-(4-(7-(2-hydroxypropan-2-yl)-4-morpholino-quinazolin-2-yl)phenyl)urea], the pIC50 in assay [1] was 6.70 to 7.30; at mTOR kinase, over 7.30; in assay [2] (setting [3]) it was 5.00 to 6.70; in the assay on PC3 cells it was 5.00 to 6.70.
For the compound `CN(C)C(=O)c1ccc(NC(=O)Nc2ccc(-c3nc(N4CCOCC4)c4ccc(C(C)(C)O)cc4n3)cc2)cc1` [Example 16, 4-(3-(4-(7-(2-hydroxypropan-2-yl)-4-morpholino-quinazolin-2-yl)phenyl)ureido)-N,N-dimethyl-benzamide], the pIC50 in assay [1] is over 7.30; on mTOR kinase, over 7.30; in assay [2] (setting [3]) it was 5.00 to 6.70; in the assay on PC3 cells, 5.00 to 6.70.
In the case of `CN(C)C(=O)c1ccc(NC(=O)Nc2ccc(-c3nc(N4CCOCC4)c4cccc(-c5cccnc5F)c4n3)cc2)cc1` [Example 40, 4-(3-{4-[8-(2-fluoro-pyridin-3-yl)-4-morpholin-4-yl-quinazolin-2-yl]-phenyl}-ureido)-N,N-dimethyl-benzamide], the pIC50 was 6.70 to 7.30 in assay [1], over 7.30 at mTOR kinase, over 7.00 in assay [2] (setting [3]) and 6.30 to 7.00 in the assay with PC3 cells.
In the same order, the values of `CN(C)C(=O)c1ccc(NC(=O)Nc2ccc(-c3nc(N4CCOCC4)c4ccc(-c5cccc(O)c5)cc4n3)cc2)cc1` [Example 41, 4-(3-{4-[7-(3-hydroxy-phenyl)-4-morpholin-4-yl-quinazolin-2-yl]-phenyl}-ureido)-N,N-dimethyl-benzamide] are over 7.30, 6.70 to 7.30, over 7.00 and 6.30 to 7.00.
`CN(C)C(=O)c1ccc(NC(=O)Nc2ccc(-c3nc(N4CCOCC4)c4ccc(-c5cnn(C)c5)cc4n3)cn2)cc1` [Example 55, N,N-dimethyl-4-(3-{5-[7-(1-methyl-1H-pyrazol-4-yl)-4-morpholin-4-yl-quinazolin-2-yl]-pyridin-2-yl}-ureido)-benzamide]: the pIC50 is over 7.30 in assay [1], over 7.30 on mTOR kinase, over 7.00 in assay [2] (setting [3]) and 6.30 to 7.00 with PC3 cells.
As to `Cc1ccncc1-c1ccc2c(N3CCOCC3)nc(-c3ccc(NC(=O)Nc4ccc(C(=O)N(C)C)cc4)cc3)nc2c1` [Example 62, N,N-dimethyl-4-(3-{4-[7-(4-methyl-pyridin-3-yl)-4-morpholin-4-yl-quinazolin-2-yl]-phenyl}-ureido)-benzamide], the pIC50 in assay [1] is over 7.30; at mTOR kinase, over 7.30; in assay [2] (setting [3]), over 7.00; in the assay with PC3 cells it was 6.30 to 7.00.
In the case of `Cc1ccc(-c2ccc3c(N4CCOCC4)nc(-c4ccc(NC(=O)Nc5ccc(C(=O)N(C)CCN(C)C)cc5)cc4)nc3c2)o1` [Example 63, N-(2-dimethylamino-ethyl)-N-methyl-4-(3-{4-[7-(5-methyl-furan-2-yl)-4-morpholin-4-yl-quinazolin-2-yl]-phenyl}-ureido)-benzamide], the pIC50 in assay [1] is over 7.30; at mTOR kinase, over 7.30; in assay [2] (setting [3]), 6.30 to 7.00; with PC3 cells, 6.30 to 7.00.
Consider `CN(C)[C@@H]1CCN(C(=O)c2ccc(NC(=O)Nc3ccc(-c4nc(N5CCOCC5)c5cc(F)c(-c6cccnc6)cc5n4)cc3)cc2)C1` [Example 200, (R)-1-(4-(3-(dimethylamino)pyrrolidine-1-carbonyl)phenyl)-3-(4-(6-fluoro-4-morpholino-7-(pyridin-3-yl)quinazolin-2-yl)phenyl)urea], for which the values for the pIC50 (in assay [1]; at mTOR kinase; in assay [2] (In-cell Western)) were over 7.30, over 7.30 and 5.00 to 6.70, respectively.
Turning to `N[C@@H]1CCN(C(=O)c2ccc(NC(=O)Nc3ccc(-c4nc(N5CCOCC5)c5ccc(-c6cncnc6)cc5n4)cc3F)cc2)C1` [Example 209, (R)-1-(4-(3-aminopyrrolidine-1-carbonyl)phenyl)-3-(2-fluoro-4-(4-morpholino-7-(pyrimidin-5-yl)quinazolin-2-yl)phenyl)urea], the results for the pIC50 (in assay [1]; on mTOR kinase; in assay [2] (In-cell Western)) were over 7.30, over 7.30 and 5.00 to 6.70, respectively.
